Test results taken from patent publication US20240408169A1 (priority 2023, published 2024).
*1 amine or outer side, *2 acyl side, *3 side chain or, on linkers, in order; H or OH if unused. Where a SMILES comes first, the peptide text is derived from it. Bridges are numbered along the chain shown (N, C = ends). [ ]: non-standard residue; d: D form. The star is where a group is joined. NMePhe(2-(4-MorPh),5-Cl) = CN[C@@H](Cc1cc(Cl)ccc1-c1ccc(N2CCOCC2)cc1)C(=O)O; X157 = CN([C@@H](Cc1cc(Cl)ccc1-c1ccc(S(=O)(=O)N2CCOCC2)cc1)C(=O)[*:2])[*:1]; X202 = CN([C@@H](Cc1cc(Cl)ccc1-c1ccc(N2CCN(CC(F)F)CC2)cc1)C(=O)[*:2])[*:1]; X198 = COC[C@H]1COCCN1c1ccc(-c2ccc(Cl)cc2C[C@@H](C(=O)[*:2])N(C)[*:1])cc1; X169 = CN([C@@H](Cc1cc(Cl)ccc1-c1ccc(-c2cnn3c2COCC3)cc1)C(=O)[*:2])[*:1]; X185 = CN([C@@H](Cc1cc(Cl)ccc1-c1ccc(N2CCOC(C)(C)C2)cc1)C(=O)[*:2])[*:1]; X179 = CN([C@@H](Cc1cc(Cl)ccc1-c1ccc(N2CCOCC2)c(C#N)c1)C(=O)[*:2])[*:1]; X149 = CN([C@@H](Cc1cc(Cl)ccc1-c1ccnc(N2CCOCC2)c1F)C(=O)[*:2])[*:1]; X186 = CN([C@@H](Cc1cc(Cl)ccc1-c1ccc(N2CCOCC2)cn1)C(=O)[*:2])[*:1]; NMehhhLys(Me) = CN([C@@H](CCCCCCCN(C)[*:3])C(=O)[*:2])[*:1]; cBuCO(3,3-F2-1-CF3) = O=C(C1(C(F)(F)F)CC(F)(F)C1)*; Pro(trans-4-F) = O=C(O)[C@@H]1C[C@@H](F)CN1; X201 = O=C(C1(C(F)F)CC(F)(F)C1)*; Gly(cPr) = N[C@H](C(=O)O)C1CC1

Key:
OVCAR3 cells = assay: MTT proliferation assay, OVCAR3; type: cell-based; conditions: 5 days compound exposure, 1:3 serial dilution starting at 10 μM;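 also: compound given as an 8- or 10-point series, one day after plating, with exposure covering roughly 3-4 cell doublings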
CyclinA2/CDK2 = target: T1, CyclinA2/CDK2 (Homo sapiens, UniProt P20248); assay: Fluorescence Polarization (FP) competitive binding assay, Cyclin A2/Cdk2; conditions: 8 nM Cyclin A2/Cdk2, 2 nM FAM probe; average of 2-3 independent experiments; read-out: Cyclin A FP IC50;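 also: plates equilibrated two hours at room temperature before polarization reading, IC50 fitted from eight-concentration compound titration curves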
T1 construct: purchased CRELUX Protein Services

CyclinB1/CDK1 = target: T2, CyclinB1/CDK1 (Homo sapiens, UniProt P14635); assay: Fluorescence Polarization (FP) competitive binding assay, Cyclin B1/Cdk1; conditions: 10 nM Cyclin B1/Cdk1, 2 nM FAM probe; average of 2-3 independent experiments; read-out: Cyclin B FP IC50;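 also: fluorescence polarization read after equilibration at room temperature, with IC50 taken from serially diluted dose-response curves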
T2 construct: purchased Eurofins, discovery 14-450

CyclinE1/CDK2 = target: T3, CyclinE1/CDK2 (Homo sapiens, UniProt P24864); assay: Fluorescence Polarization (FP) competitive binding assay, Cyclin E1/Cdk2; conditions: 10 nM Cyclin E1/Cdk2, 2 nM FAM probe; average of 2-3 independent experiments; read-out: Cyclin E FP IC50;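 also: readings taken after two-hour equilibration at room temperature in HEPES buffer with NaCl, DTT, NP-40 and BSA, IC50 fitted from eight-concentration serial dilution series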
T3 construct: purchased Eurofins, discovery 14-475

NCI-H1048 cells = assay: MTT proliferation assay, NCI-H1048; type: cell-based; conditions: 5 days compound exposure, 1:3 serial dilution starting at 10 μM;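 also: Dose-response in 96-well plates over 8 or 10 concentration points, with exposure spanning 3-4 cell doublings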

| Structure (SMILES) | GI50 (OVCAR3 cells) | IC50 (CyclinA2/CDK2) | IC50 (CyclinB1/CDK1) | IC50 (CyclinE1/CDK2) | GI50 (NCI-H1048 cells) |
| --- | --- | --- | --- | --- | --- |
| CC(C)C[C@@H]1NC(=O)[C@@H](N(C)C(=O)[C@@H](NC(=O)[C@@H]2C[C@@H](F)CN2C(=O)C2(C(F)(F)F)CC(F)(F)C2)C2CC2)CCCCCCCN(C)C(=O)[C@H](Cc2cc(Cl)ccc2-c2ccnc(N3CCOCC3)c2F)N(C)C1=O [Example 349] ({cBuCO(3,3-F2-1-CF3)}-[Pro(trans-4-F)][Gly(cPr)][NMehhhLys(Me)]L[X149]; lactam 3-C) | 0.01 µM | 0.02 µM | 0.02 µM | 0.23 µM | 0.01 µM |
| CC(C)C[C@@H]1NC(=O)[C@@H](N(C)C(=O)[C@@H](NC(=O)[C@@H]2C[C@@H](F)CN2C(=O)C2(C(F)F)CC(F)(F)C2)C2CC2)CCCCCCCN(C)C(=O)[C@H](Cc2cc(Cl)ccc2-c2ccc(N3CCOCC3)cc2)N(C)C1=O [Example 350] (X201-[Pro(trans-4-F)][Gly(cPr)][NMehhhLys(Me)]L[NMePhe(2-(4-MorPh),5-Cl)]; lactam 3-C) | 0.01 µM | 0.02 µM | 0.02 µM | 0.88 µM | 0.01 µM |
| CC(C)C[C@@H]1NC(=O)[C@@H](N(C)C(=O)[C@@H](NC(=O)[C@@H]2C[C@@H](F)CN2C(=O)C2(C(F)(F)F)CC(F)(F)C2)C2CC2)CCCCCCCN(C)C(=O)[C@H](Cc2cc(Cl)ccc2-c2ccc(N3CCN(CC(F)F)CC3)cc2)N(C)C1=O [Example 352] ({cBuCO(3,3-F2-1-CF3)}-[Pro(trans-4-F)][Gly(cPr)][NMehhhLys(Me)]L[X202]; lactam 3-C) | 0.01 µM | 0.02 µM | 0.02 µM | 0.51 µM | 0.01 µM |
| CC(C)C[C@@H]1NC(=O)[C@@H](N(C)C(=O)[C@@H](NC(=O)[C@@H]2C[C@@H](F)CN2C(=O)C2(C(F)(F)F)CC(F)(F)C2)C2CC2)CCCCCCCN(C)C(=O)[C@H](Cc2cc(Cl)ccc2-c2ccc(S(=O)(=O)N3CCOCC3)cc2)N(C)C1=O [Example 354] ({cBuCO(3,3-F2-1-CF3)}-[Pro(trans-4-F)][Gly(cPr)][NMehhhLys(Me)]L[X157]; lactam 3-C) | 0.02 µM | 0.03 µM | 0.02 µM | 1.34 µM | 0.01 µM |
| CC(C)C[C@@H]1NC(=O)[C@@H](N(C)C(=O)[C@@H](NC(=O)[C@@H]2C[C@@H](F)CN2C(=O)C2(C(F)(F)F)CC(F)(F)C2)C2CC2)CCCCCCCN(C)C(=O)[C@H](Cc2cc(Cl)ccc2-c2ccc(N3CCOC(C)(C)C3)cc2)N(C)C1=O [Example 366] ({cBuCO(3,3-F2-1-CF3)}-[Pro(trans-4-F)][Gly(cPr)][NMehhhLys(Me)]L[X185]; lactam 3-C) | 0.02 µM | 0.02 µM | 0.02 µM | 1.05 µM | 0.02 µM |
| COC[C@H]1COCCN1c1ccc(-c2ccc(Cl)cc2C[C@H]2C(=O)N(C)CCCCCCC[C@H](N(C)C(=O)[C@@H](NC(=O)[C@@H]3C[C@@H](F)CN3C(=O)C3(C(F)(F)F)CC(F)(F)C3)C3CC3)C(=O)N[C@@H](CC(C)C)C(=O)N2C)cc1 [Example 373] ({cBuCO(3,3-F2-1-CF3)}-[Pro(trans-4-F)][Gly(cPr)][NMehhhLys(Me)]L[X198]; lactam 3-C) | 0.01 µM | 0.02 µM | 0.02 µM | 0.48 µM | 0.01 µM |
| CC(C)C[C@@H]1NC(=O)[C@@H](N(C)C(=O)[C@@H](NC(=O)[C@@H]2C[C@@H](F)CN2C(=O)C2(C(F)(F)F)CC(F)(F)C2)C2CC2)CCCCCCCN(C)C(=O)[C@H](Cc2cc(Cl)ccc2-c2ccc(-c3cnn4c3COCC4)cc2)N(C)C1=O [Example 378] ({cBuCO(3,3-F2-1-CF3)}-[Pro(trans-4-F)][Gly(cPr)][NMehhhLys(Me)]L[X169]; lactam 3-C) | 0.02 µM | 0.02 µM | 0.02 µM | 1.12 µM | 0.01 µM |
| CC(C)C[C@@H]1NC(=O)[C@@H](N(C)C(=O)[C@@H](NC(=O)[C@@H]2C[C@@H](F)CN2C(=O)C2(C(F)(F)F)CC(F)(F)C2)C2CC2)CCCCCCCN(C)C(=O)[C@H](Cc2cc(Cl)ccc2-c2ccc(N3CCOCC3)c(C#N)c2)N(C)C1=O [Example 379] ({cBuCO(3,3-F2-1-CF3)}-[Pro(trans-4-F)][Gly(cPr)][NMehhhLys(Me)]L[X179]; lactam 3-C) | 0.02 µM | 0.03 µM | 0.02 µM | 2.73 µM | 0.03 µM |
| CC(C)C[C@@H]1NC(=O)[C@@H](N(C)C(=O)[C@@H](NC(=O)[C@@H]2C[C@@H](F)CN2C(=O)C2(C(F)(F)F)CC(F)(F)C2)C2CC2)CCCCCCCN(C)C(=O)[C@H](Cc2cc(Cl)ccc2-c2ccc(N3CCOCC3)cn2)N(C)C1=O [Example 382] ({cBuCO(3,3-F2-1-CF3)}-[Pro(trans-4-F)][Gly(cPr)][NMehhhLys(Me)]L[X186]; lactam 3-C) | 0.04 µM | 0.04 µM | 0.02 µM | 2.49 µM | 0.09 µM |
